Assay results reported in the supplement of paper PMC11061612.

Assays:
Assay in all cases: Bliss excess, mean over the matrix (fraction); higher = more synergy
[1] = tested on: CAL-78 (Chondrosarcoma)
Procedure, shortened: (§1)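 Cell lines grown in DMEM/F12 or RPMI with 10% FBS were plated in 1536-well plates and held 24 hours at 37°C, 5% CO2 before 72 hours of exposure to two-drug dose matrices, with DMSO typically at 0.2%. CellTiter-Glo 2.0 luminescence gave viability, which was converted to inhibition. Vehicle wells were set to 0 and blank wells to 1. Combination Emax is the second-highest inhibition in the matrix, and Bliss excess is the observed combination effect minus the expected EA + EB − EA·EB, where EA and EB are the single-agent effects.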

[2] = tested on: DB (B-Cell Non-Hodgkin's Lymphoma)
Procedure, shortened: as §1

[3] = tested on: DOV13 (Ovarian Carcinoma)
Procedure, shortened: as §1

[4] = tested on: EM-2 (Chronic Myelogenous Leukemia)
Procedure, shortened: as §1

[5] = tested on: G-292-Clone-A141B1 (Osteosarcoma)
Procedure, shortened: as §1

[6] = tested on: HCC2157 (Breast Carcinoma)
Procedure, shortened: as §1

[7] = tested on: HPAC (Pancreatic Carcinoma)
Procedure, shortened: as §1

[8] = tested on: HT-29 (Colorectal Carcinoma)
Procedure, shortened: as §1

[9] = tested on: IGR-1 (Melanoma)
Procedure, shortened: as §1

[10] = tested on: IHH-4 (Thyroid Gland Carcinoma)
Procedure, shortened: as §1

[11] = tested on: J82 (Bladder Carcinoma)
Procedure, shortened: as §1

[12] = tested on: KATOIII (Gastric Carcinoma)
Procedure, shortened: as §1

[13] = tested on: MDA-MB-157 (Breast Carcinoma)
Procedure, shortened: as §1

[14] = tested on: MFH-ino (Other Solid Carcinomas)
Procedure, shortened: as §1

[15] = tested on: NALM-6 (B-Lymphoblastic Leukemia)
Procedure, shortened: as §1

[16] = tested on: SUIT-2 (Pancreatic Carcinoma)
Procedure, shortened: as §1

[17] = tested on: SW1088 (Low Grade Glioma)
Procedure, shortened: as §1

[18] = tested on: SW1990 (Pancreatic Carcinoma)
Procedure, shortened: as §1

[19] = tested on: SW756 (Cervical Carcinoma)
Procedure, shortened: as §1

[20] = tested on: TGBC24TKB (Biliary Tract Carcinoma)
Procedure, shortened: as §1

Compound | Bliss excess [1] | Bliss excess [2] | Bliss excess [3] | Bliss excess [4] | Bliss excess [5] | Bliss excess [6] | Bliss excess [7] | Bliss excess [8] | Bliss excess [9] | Bliss excess [10] | Bliss excess [11] | Bliss excess [12] | Bliss excess [13] | Bliss excess [14] | Bliss excess [15] | Bliss excess [16] | Bliss excess [17] | Bliss excess [18] | Bliss excess [19] | Bliss excess [20]
CCN(CCO)CCCOc1ccc2c(Nc3cc(CC(=O)Nc4cccc(F)c4)[nH]n3)ncnc2c1 [AZD2811] + C=CCn1c(=O)c2cnc(Nc3ccc(N4CCN(C)CC4)cc3)nc2n1-c1cccc(C(C)(C)O)n1 [AZD1775] (first compound max 1 µM, partner max 1 µM) | 0.0636 | 0.0251 | -0.0063 | -0.0184 | -0.0368 | -0.0071 | 0.0048 | -0.0446 | -0.0438 | 0.0451 | 0.0001 | -0.0459 | 0.0291 | -0.0399 | -0.0515 | -0.017 | 0.0034 | -0.0403 | -0.01 | -0.0717
CCN(CCO)CCCOc1ccc2c(Nc3cc(CC(=O)Nc4cccc(F)c4)[nH]n3)ncnc2c1 [AZD2811] + C[C@@H]1COCCN1C2=NC(=NC(=C2)C3(CC3)[S@](=N)(=O)C)C4=C5C=CNC5=NC=C4 [AZD6738] (first compound max 1 µM, 7x7, partner max 10 µM) | -0.0799 | -0.0302 | -0.0619 | -0.0433 | -0.12 | -0.0704 | -0.0244 | -0.0459 | 0.0315 | -0.0583 | -0.0259 | -0.0477 | 0.0031 | -0.0878 | -0.0435 | -0.0307 | -0.103 | -0.0555 | -0.0095 | -0.0407
COc1nnc2ccc(N3CCC(c4ccc(OCCN5CCN(C)C(=O)[C@H]5C)cc4)CC3)nn12 [AZD5153] + CN(CC[C@H](CSC1=CC=CC=C1)NC2=C(C=C(C=C2)S(=O)(=O)NC(=O)C3=CC=C(C=C3)N4CCC(CC4)[C@H](C5=CC=CC=C5C6=CC=C(C=C6)Cl)O)S(=O)(=O)C(F)(F)F)CCO [AZD4320] (first compound max 1 µM, 7x7, partner max 1 µM) | 0.132 | – | – | -0.0442 | – | 0.0047 | 0.0229 | -0.0111 | 0.197 | – | 0.0292 | – | – | – | – | 0.005 | – | – | 0.0196 | 0.0326
Cc1c2c(nn1C)CSCc1cc(n(C)n1)CSc1cc(c3ccccc3c1)OCCCc1c(C(=O)O)n(C)c3c-2c(Cl)ccc13 [AZD5991] + Cc1cc2ncnn2cc1Nc1ncc2c(n1)n(C1CCOCC1)c(=O)n2C [AZD7648] (first compound max 1 µM, 7x7, partner max 10 µM) | -0.0448 | -0.0087 | -0.0025 | 0.0206 | -0.0274 | 0.0283 | -0.0679 | 0.0049 | -0.0642 | -0.0281 | -0.0231 | -0.0305 | -0.0214 | -0.018 | -0.0303 | – | -0.0665 | -0.0398 | -0.0367 | -0.0102
Cc1nc(Nc2ncc(C(=O)Nc3c(C)cccc3Cl)s2)cc(N2CCN(CCO)CC2)n1 [Dasatinib] + CC(=O)Nc1cccc(-n2c(=O)n(C3CC3)c(=O)c3c(Nc4ccc(I)cc4F)n(C)c(=O)c(C)c32)c1 [Trametinib] (first compound max 2 µM, 7x7, partner max 1 µM) | -0.108 | -0.0005 | 0.0135 | -0.0935 | – | -0.0199 | 0.039 | 0.0984 | -0.0448 | 0.112 | -0.0068 | -0.0164 | -0.0026 | -0.0838 | 0.0217 | 0.0197 | -0.0087 | 0.0235 | -0.0659 | 0.106
CC(=O)c1c(C)c2cnc(Nc3ccc(N4CCNCC4)cn3)nc2n(C2CCCC2)c1=O [Palbociclib] + CN(CC[C@H](CSC1=CC=CC=C1)NC2=C(C=C(C=C2)S(=O)(=O)NC(=O)C3=CC=C(C=C3)N4CCC(CC4)[C@H](C5=CC=CC=C5C6=CC=C(C=C6)Cl)O)S(=O)(=O)C(F)(F)F)CCO [AZD4320] (first compound max 10 µM, 7x7, partner max 1 µM) | -0.0873 | – | – | -0.0899 | – | 0.0149 | -0.0765 | -0.0271 | -0.0387 | – | -0.0667 | – | – | – | – | -0.0937 | – | – | -0.0883 | -0.0727
CCc1c2c(nc3ccc(O)cc13)-c1cc3c(c(=O)n1C2)COC(=O)[C@]3(O)CC [SN-38] + O=C(c1cc(Cc2n[nH]c(=O)c3ccccc23)ccc1F)N1CCN(C(=O)C2CC2)CC1 [Olaparib] (first compound max 0.3 µM, 7x7, partner max 10 µM) | – | 0.0534 | 0.0456 | 0.0606 | -0.0332 | – | -0.0031 | 0.0396 | 0.0115 | 0.0356 | 0.0532 | -0.0478 | 0.0102 | 0.0254 | 0.0775 | -0.0211 | 0.0683 | 0.0001 | -0.0109 | 0.0421
C[C@@H](c1ccc2nccn2c1)n1nnc2ncc(-c3cnn(C)c3)nc21 [Savolitinib] + CN(CC[C@H](CSC1=CC=CC=C1)NC2=C(C=C(C=C2)S(=O)(=O)NC(=O)C3=CC=C(C=C3)N4CCC(CC4)[C@H](C5=CC=CC=C5C6=CC=C(C=C6)Cl)O)S(=O)(=O)C(F)(F)F)CCO [AZD4320] (first compound max 1 µM, 7x7, partner max 1 µM) | -0.0906 | – | – | -0.0531 | – | -0.0331 | -0.0347 | -0.0245 | -0.0913 | – | 0.0168 | – | – | – | – | 0.0046 | – | – | -0.0319 | 0.0233
